Source: patent US12377079B2, “Antibacterial compounds and uses thereof” (The Children's Medical Center Corporation, priority 2018, dated 2025)
Values after ≈ are worked out from the molar mass of the structure shown. “Also recorded” adds a separate entry of the source.

What was measured:
[1] = test system: K. pneumoniae strain BAA-1705; assay: High-throughput screen / dose-response based on mannose fermentation
Group A streptococcus = assay: Minimum inhibitory concentration (MIC); conditions: read-out: Minimum inhibitory concentration (MIC)
P. aeruginosa PA01 = assay: Minimum inhibitory concentration (MIC); conditions: for Minimum inhibitory concentration (MIC): P. aeruginosa PA01, PAβN + (40 μg/mL); for MIC: Pseudomonas aeruginosa, PA01, read-out: Minimum inhibitory concentration (MIC)
resistant GNR = assay: MIC with and without efflux pump inhibitor PAβN, resistant GNR as a group
K. pneumoniae (Kp233) [2] = assay: Morphometric analysis by phase contrast microscopy; assay type: cell-based, Klebsiella pneumoniae; conditions: stationary phase cells, 4 hr; compounds 100 μl/mI alone or with PAβN, ampicillin 150 μg/mL
Experimental: (§1) Morphometric analysis. Carbapenem-susceptible Kp233 were treated as described for stationary phase viability assays, with the exception that negative control wells contained no DMSO and no antimicrobials. Ampicillin (150 μg/mL) was used as a positive control. Cells were incubated statically at 37° C. for 4 hr. Thirty μL from each well was transferred into a 24-well plate filled with 300 μL of LB broth. Images were captured with a 40× magnification lens using a Nikon Eclipse TE2000-E microscope. Morphometric analysis was carried out using IPLab 4.0 software.

A. baumanii = assay: Minimum inhibitory concentration (MIC)
[3] = test system: E. coli urine isolate EC235; assay: Minimum inhibitory concentration (MIC); conditions: Escherichia coli, read-out: Minimum inhibitory concentration (MIC)
Kp233/pJBA110 = assay: GFP fluorescence assay (protein synthesis); conditions: highest concentration used (100 μg/mL), 15 hr
[4] = test system: E. coli urine isolate EC236; assay: Minimum inhibitory concentration (MIC); conditions: Escherichia coli, read-out: Minimum inhibitory concentration (MIC)
HeLa S3 cells = assay: Alamar Blue assay for cytotoxicity; assay type: cell-based, human; conditions: 13 and 107 μg/mL, 20 hours
Experimental: Alamar Blue assay for cytotoxicity. HeLa S3 cells were cultured in Dulbecco's modified Eagle medium supplemented with 10% fetal bovine serum, 100 U/mL penicillin, and 100 μg/mL streptomycin. Each well of a 96-well microtiter plate (Nunclon Delta Surface, Thermo Scientific) was seeded with 10,000 cells in 100 μL of culture medium. Cells were incubated for 18 hr in a humidified incubator at 37° C. with 5% CO2 to allow attachment. Compounds were added to the adherent cells to yield a final concentration of 13 and 107 μg/mL. Positive control wells contained 0.1% Triton X-100, carrier control wells contained DMSO, and negative control wells contained medium and cells without DMSO. After addition of compounds, 0.1% Triton, or DMSO, plates were returned to the incubator. Cell viability was measured by resazurin reduction. Alamar Blue reagent (Invitrogen) was added to the cells after a 1.5 hr incubation with the test compounds. Cells were incubated for 20 hr, and then fluorescence was measured using the Infinite 200 (Tecan) with excitation and emission wavelengths of 550 nm and 590 nm, respectively. To calculate viability, the average fluorescence value of Triton-treated positive control wells was subtracted from that of untreated wells or wells containing test compounds. These values were then divided by the average fluorescence of untreated wells to give cell viability as a percentage of the negative control.

MRSA = assay: Minimum inhibitory concentration (MIC); conditions: Staphylococcus aureus, read-out: Minimum inhibitory concentration (MIC)
[5] = Particulate matter in aqueous media (micrographs); assay type: physicochemical; conditions: 100 μg/mL in culture medium
Experimental: as §1

[6] = test system: CR K. pneumoniae strain BAA-1705; assay: Dose-response growth inhibition (viable cell counts in LB broth); conditions: 22 hr in LB broth, concentrations tested 0.78-50 μg/mL
[7] = test system: CR-K. pneumoniae (ATCC BAA-1705); assay: Minimum inhibitory concentration (MIC); conditions: for Minimum inhibitory concentration (MIC): CR-K. pneumoniae ATCC BAA-1705, PAβN + (40 μg/mL); for MIC: Klebsiella pneumoniae, ATCCBAA1705, read-out: Minimum inhibitory concentration (MIC)
K. pneumoniae Kp233 = assay: Minimum inhibitory concentration (MIC); conditions: Klebsiella pneumoniae, KP233, read-out: Minimum inhibitory concentration (MIC)
K. pneumoniae (Kp233) [8] = assay: Compound impact on bacterial viability (exponential and stationary phase); assay type: cell-based, Klebsiella pneumoniae; conditions: PAβN 40 μg/mL alone, 4 hr, exponential or stationary phase
Experimental: Compound impact on bacterial viability. […] One hundred μL of each compound preparation was dispensed into the wells of a microtiter plate. Negative (untreated) wells contained LB with or without PAβN only. Stationary phase cell viability. A glycerol stock of the carbapenem-susceptible clinical strain of K. pneumoniae (Kp233) was inoculated into 1.5 mL of LB and incubated overnight (approximately 18 hr) at 37° C. with shaking. […] Cells were incubated statically at 37° C. for 4 hr, and viable counts were determined by plating. Exponential phase cell viability. Overnight cultures of Kp233 were diluted 1:5,000 into 50 mL of LB broth and incubated at 37° C. with shaking at 200 rpm. […] These cells were also washed twice with NS and inoculated into the wells of a microtiter plate prepared as described above. Cells were incubated statically at 37° C. for 4 hr, and viable counts were determined by plating.

Cc1nnc(SCC2=NN(c3nc4ccccc4[nH]3)C(=O)C2)s1 [Compound C17]
Inhibition of mannose fermentation ([1]; 22 hours, pH-DM, concentrations similar to primary and cherry-pick screens): inhibited fermentation
Activity in cherry-pick re-test ([1]; dispensed by HP D300 digital dispenser): significant activity
MIC (Group A streptococcus): 96 µg/mL (≈ 279 µM)
Minimum inhibitory concentration (MIC) (P. aeruginosa PA01): 48 µg/mL
MIC (P. aeruginosa PA01): > 96 µg/mL
Change of MIC on addition of PAβN (in words) (resistant GNR): minimally decreased
Cell shape / average particle size (K. pneumoniae (Kp233) [2]): do not significantly alter cell shape
Minimum inhibitory concentration (MIC) (A. baumanii; A. baumanii, PAβN + (40 μg/mL)): 24 µg/mL
MIC (A. baumanii; Acinetobacter baumannii, read-out: Minimum inhibitory concentration (MIC)): > 96 µg/mL
MIC [3]: 96 µg/mL (≈ 279 µM)
Bacterial growth (OD) and GFP fluorescence (Kp233/pJBA110): decreased both bacterial growth and protein synthesis
MIC [4]: 96 µg/mL (≈ 279 µM)
Toxicity to HeLa S3 cells (viability by resazurin reduction) (HeLa S3 cells): least toxic; also recorded: not toxic
MIC (MRSA): 24 µg/mL (≈ 69.7 µM)
Particulate matter in micrographs (insolubility in aqueous media) [5]: not
Growth inhibition (CFU/ml) [6]: inhibited growth
Minimum inhibitory concentration (MIC) [7]: 48 µg/mL
MIC [7]: 96 µg/mL (≈ 279 µM)
MIC (K. pneumoniae Kp233): 48 µg/mL (≈ 139 µM)

C[C@H]1COc2c(N3CCN(C)CC3)c(F)cc3c(=O)c(C(=O)O)cn1c23 [Lev, levofloxacin, reference compound]
Minimum inhibitory concentration (MIC) (P. aeruginosa PA01): 0.015 µg/mL
Reduction of MIC by PAβN (P. aeruginosa PA01; P. aeruginosa, with PAβN versus without): 16 fold
MIC (P. aeruginosa PA01): 0.25 µg/mL (≈ 0.692 µM)
MIC [3]: 0.015 µg/mL (≈ 0.0415 µM)
MIC [4]: 0.015 µg/mL (≈ 0.0415 µM)
MIC (K. pneumoniae Kp233): 0.031 µg/mL (≈ 0.0858 µM)

phenylalanine-arginine β-naphthylamide [PAβN, reference compound]
Bacterial viability (CFU) (K. pneumoniae (Kp233) [8]): did not decrease the viability

CC1(C)S[C@@H]2[C@H](NC(=O)[C@H](N)c3ccccc3)C(=O)N2[C@H]1C(=O)O [ampicillin, reference compound]
Cell shape / average particle size (K. pneumoniae (Kp233) [2]): formed filaments with significantly increased average particle size

O=C(N[C@H](CO)[C@H](O)c1ccc([N+](=O)[O-])cc1)C(Cl)Cl [Cm, chloramphenicol, reference compound]
MIC [3]: < 9 µg/mL
MIC [4]: < 9 µg/mL
Minimum inhibitory concentration (MIC) [7]: 39 µg/mL
Reduction of MIC by PAβN ([7]; K. pneumoniae, with PAβN versus without): 32 fold
MIC [7]: 1250 µg/mL (≈ 3870 µM)
MIC (K. pneumoniae Kp233): < 9 µg/mL
